Reference: the NIST ThermoML archive (doi:10.1016/j.fluid.2006.08.007)
Numbers after ± are expanded uncertainties.

Columns and labels:
[1] = Liquid, Closed cell (Static) method
[2] = excess molar enthalpy (molar enthalpy of mixing); xn = mol fraction of the nth substance listed; conditions: 298.15 K, 101 kPa, Liquid, Flow calorimetry

C#CCCCC [1-hexyne]
[1]
Conditions	vapor or sublimation pressure [kPa]
263.15 K	2.721 ± 0.013
273.15 K	4.893 ± 0.017
283.15 K	8.363 ± 0.023
293.15 K	13.67 ± 0.032
298.15 K	17.22 ± 0.039
303.15 K	21.5 ± 0.047
313.15 K	32.65 ± 0.066
323.15 K	48.09 ± 0.093
333.15 K	68.9 ± 0.13
343.15 K	96.32 ± 0.17

C#CCCCC [1-hexyne] + COC(C)(C)C
[2]
Conditions	excess molar enthalpy [kcal/mol]
x1 = 0.1111	-0.0332 ± 0.00239
x1 = 0.2113	-0.0641 ± 0.00239
x1 = 0.3134	-0.0884 ± 0.00263
x1 = 0.389	-0.1 ± 0.00263
x1 = 0.4482	-0.104 ± 0.00263
x1 = 0.5204	-0.102 ± 0.00263
x1 = 0.6206	-0.0901 ± 0.00263
x1 = 0.7263	-0.0712 ± 0.00239
x1 = 0.8179	-0.0526 ± 0.00239
x1 = 0.9011	-0.0339 ± 0.00239

CC#CCCC [2-hexyne]
[1]
Conditions	vapor or sublimation pressure [kPa]
263.15 K	1.393 ± 0.01
273.15 K	2.608 ± 0.013
283.15 K	4.631 ± 0.016
293.15 K	7.845 ± 0.023
298.15 K	10.05 ± 0.027
303.15 K	12.75 ± 0.033
313.15 K	19.99 ± 0.047
323.15 K	30.32 ± 0.067
333.15 K	44.66 ± 0.095
343.15 K	64.09 ± 0.13

CC#CCCC [2-hexyne] + COC(C)(C)C
[2]
Conditions	excess molar enthalpy [kcal/mol]
x1 = 0.1527	-0.0143 ± 0.00239
x1 = 0.2965	-0.0263 ± 0.00239
x1 = 0.4852	-0.0359 ± 0.00239
x1 = 0.6624	-0.0351 ± 0.00239
x1 = 0.7708	-0.0287 ± 0.00239
x1 = 0.8513	-0.0203 ± 0.00239

COC(C)(C)C [2-methoxy-2-methylpropane]
[1]
Conditions	vapor or sublimation pressure [kPa]
263.15 K	6.252 ± 0.02
273.15 K	10.64 ± 0.027
283.15 K	17.31 ± 0.039
293.15 K	27.06 ± 0.056
298.15 K	33.39 ± 0.068
303.15 K	40.86 ± 0.082
313.15 K	59.81 ± 0.11
323.15 K	85.15 ± 0.16
333.15 K	118.27 ± 0.21
343.15 K	160.66 ± 0.28
